# PMC5874719, “A π-Halogen Bond of Dibenzofuranones with the Gatekeeper Phe113 in Human Protein Kinase CK2 Leads to Potent Tight Binding Inhibitors” (Pharmaceuticals, 2018)
# How the values were obtained:
# Type in all cases: cell-based, human
# ARPE19 cells = assay: MTT viability assay; details: 24 h; for cell viability reduced to: ARPE19, 50 µM (highest concentration), DMSO as reference
# Procedure: Protein kinase CK2 is essential for the survival of cells. Therefore, we tested the impact of the CK2 inhibitors on the viability of cells in both lines. The inhibitors were applied in increasing concentrations up to 50 µM to growing cell cultures and the viability was analyzed by a MTT assay after 24 h of treatment. The effect of the compounds on the growth of the normal ARPE19 cells was rather moderate (Figure 5A). 5 had no impact on ARPE19 cell viability. 4b reduced the viability to 70% in its highest concentration and 4a exerted the strongest influence by reducing the ratio of viable cells to 40% when applying a 50 µM dose. In contrast LNCaP cells were strongly impaired by the treatment with the dibenzofurans (Figure 5B): Using 10 µM of the different inhibitors, we only observed an effect with 4b. However, increasing the concentration to 20, 25 and 50 µM exerted a drastic impact on the viability of LNCaP cells. With 50 µM 4b a viability rate of final 5% was obtained, whereas 4a and 5 reduced the viability to 30 to 35%. Thus, the inhibitors in particular affected the viability of LNCaP carcinoma cells, but not of normal retinal pigment epithelium cells. […] Even after 48 h of growth under CK2 inhibition ARPE19 cells appeared rather unaffected by the treatment. […]
# Figure 5 Effects of dibenzofuran inhibitors on cell viability. […] Cell viability was determined using the MTT assay after 24 h of incubation. […]
# ARPE19 cells (ATCC Number: CRL-2302), retinal pigment epithelia (RPE) cells, were maintained at 37 °C and 5% CO2 in Dulbecco’s modified Eagles medium (DMEM) supplemented with 2 mM L-glutamine, 1 mM gentamicin and 10% fetal calf serum (FCS) at 37 °C in an atmosphere enriched with 5% CO2. […] For the evaluation of cell morphology ARPE19 and LNCaP cells were analysed with bright field microscopy using a Axiovert microscope from Zeiss (Jena, Germany).
# Cell proliferation and viability was determined using a colorimetric MTT-based assay (MTT: 3-[4,5-dimethylthiazol-2-yl]-2,5-diphenyl tetrazolium bromide, Sigma-Aldrich, Deisenhofen, Germany) as described in [72]. […]
# [1] = system: cellular CK2 in LNCaP cells; assay: cellular CK2 activity after treatment of cells (in vitro phosphorylation assay of cell extracts); details: control = 100%
# Procedure: (§1) Figure 4 Expression of CK2 in prostate cancer cell line LNCaP and non-neoplastic retinal pigment epithelial cell line ARPE19 and inhibition of intracellular activity by dibenzofurans. (A) Cells were extracted with RIPA buffer. 50 μg cell extract was separated on a 12.5% SDS polyacrylamide gel and transferred to a PVDF membrane followed by Western blotting with anti-CK2α (1A5), anti-CK2α’ (#30), anti-CK2α (6D5) and anti-GAPDH antibodies. GAPDH was used as a loading control. (B) ARPE19 or LNCaP cells were treated with DMSO as control (0 μM) or with 25 or 50 μM 4b, 4a or 5 for 24 or 48 h. Kinase activity of CK2 in the cell extracts was measured with the synthetic CK2 specific peptide substrate, […], in the presence of [[^32P]γATP. Results from at least three individual experiments are shown; the activity in the control cells was set to 100%.
# (§2) ARPE19 and LNCaP cells were treated with 0, 25 or 50 µM of the different dibenzofuran derivatives 4b, 4a and 5 for 24 and 48 h before being harvested. Proteins were extracted and CK2 kinase activity was measured by an in vitro phosphorylation assay using the CK2 specific peptide substrate […] and radiolabeled [[^32P]γATP. The activity as measured was normalized to equal protein amounts. The relative CK2 activity of at least three independent experiments is given as bar graphs in Figure 4B. In ARPE19 cells CK2 activity was strongly repressed by all inhibitors. […] For 5 a weaker but dose-dependant effect was observed. 25 µM reduced the cellular CK2 activity to 80% and with 50 µM the activity was reduced to 40%. In LNCaP cells the results were essentially similar to those made in ARPE19 cells. However, the repression of activity by 4b and 4a was not as strong as in ARPE19 cells. 4b reduced the activity to 50%, 4a to 40%. The outcome using 5 was quite similar to the effects observed in ARPE19 cells: a reduction to roughly 80% when using 25 µM, which was enhanced to 40% when using 50 µM. This also indicated cell penetration of compounds 4a, 4b, and 5. A more direct evidence for intracellular inhibition of CK2 could be obtained by measuring the phosphorylation of endogenous natural substrates (biomarker analysis). […] With respect to their results and taking into consideration that the logP values of compounds 4a, 4b, and 5 as given in Table 2 are not of substantial difference, we conclude that the inhibitors were able to cross the cell membrane and exerted a similar inhibitory effect on intracellular CK2 activity in both cell lines.
# (§3) ARPE19 cells (ATCC Number: CRL-2302), retinal pigment epithelia (RPE) cells, were maintained at 37 °C and 5% CO2 in Dulbecco’s modified Eagles medium (DMEM) supplemented with 2 mM L-glutamine, 1 mM gentamicin and 10% fetal calf serum (FCS) at 37 °C in an atmosphere enriched with 5% CO2. The hormone-sensitive prostate cancer cell line LNCaP (ATCC: CRL-1740, passage number 30–40) was cultured in RPMI1640 (Sigma-Aldrich Chemie GmbH, Munich, Germany) supplemented with 10% fetal bovine serum and 2 mM L-glutamine at 37 °C in an atmosphere enriched with 5% CO2. 4b, 4a and 5 were dissolved in DMSO as a 10 mM stock solution and cells were treated in the concentrations and times as indicated. Pure DMSO was applied as control. For the evaluation of cell morphology ARPE19 and LNCaP cells were analysed with bright field microscopy using a Axiovert microscope from Zeiss (Jena, Germany).
# (§4) For harvesting cells—including floating cells—were scraped off the plate with a rubber policeman and sedimented by centrifugation (7 min, 4 °C, 400× g). Cells were washed with cold phosphate buffered saline (PBS) and the cell pellet was lysed with the double volume of RIPA buffer (50 mM Tris/HCl, pH 8.0, 150 mM NaCl, 0.5% sodium desoxycholate, 1% Triton X-100, 0.1% sodium dodecylsulfate) supplemented with the protease inhibitor cocktail completeTM (Roche Diagnostics GmbH, Mannheim, Germany). […]
# [2] = system: cellular CK2 in ARPE19 cells; assay: as above; details: for cellular CK2 activity reduced to: control = 100%
# Procedure: as §1, §2, §3, §4
# [3] = 25 or 50 µM, 24 or 48 h (not specified)
Compound,cell viability reduced to (ARPE19 cells) [%],"cellular CK2 activity reduced to [1, 3] [%]","inhibition of cellular CK2 activity ([2]; ARPE19, 25 µM for 24 h) [%]","inhibition of cellular CK2 activity ([2]; ARPE19, 25 or 50 µM, 24 or 48 h, independent of concentration and time) [%]","impact on cell viability (ARPE19 cells; ARPE19, up to 50 µM)",cellular CK2 activity reduced to ([1]; 25 µM),cellular CK2 activity reduced to ([1]; 50 µM) [%],"cellular CK2 activity reduced to ([2]; ARPE19, 25 µM) [%]","cellular CK2 activity reduced to ([2]; ARPE19, 50 µM) [%]"
"COc1ccc(N/C=C2\C(=O)CCc3c2oc2cc(Cl)c(O)c(Cl)c32)cc1 [4a, 7,9-dichloro-1,2-dihydro-8-hydroxy-4-[(4-methoxyphenylamino)methylene]dibenzo[b,d]furan-3(2H)-one]",40,40,80,–,–,–,–,–,–
"Cc1ccc(NC=C2C(=O)CCc3c2oc2c(Cl)c(Cl)c(O)cc32)cc1 [4b, 6,7-dichloro-1,4-dihydro-8-hydroxy-4-[(4-methylphenylamino)methylene]dibenzo[b,d]furan-3(2H)-one]",70,50,–,60,–,–,–,–,–
"COc1ccc(/N=C/c2c(O)ccc3c2oc2cc(Cl)c(O)c(Cl)c23)cc1 [compound 5, (E)-1,3-dichloro-6-[(4-methoxyphenylimino)methyl]dibenzo[b,d]furan-2,7-diol]",–,–,–,–,no impact,roughly 80%,40,80,40
